Values joined by “and” are separate entries in the source; they are usually repeats but may differ in a detail not shown here. Equal values may be shown once.
System: GEMS receptors with CBPA11 (BclXL–LD3 and BclXLhigh variants), STAT3-driven SEAP in HEK293T cells
Assay: GEMS SEAP reporter assay, CBPA11 (BclXLhigh, LD3-v and BclXL-v variants) with A-1155463
Format: cell-based
Set-up: key to Raw data (SEAP) / SEAP, replicate values / Raw data of Figure 5b / Raw data Figure 5e / Raw data of Independent repeat of CBPA11-v1 vs CBPA11-v1-LD3v3 / Raw data of Independent repeat of CBPA11-v3 vs CBPA11-v3-LD3v3 / Raw data of Figure 5b, CBPA11-v1-LD3v3 (SEAP reporter raw value, single replicate) / Raw data of Figure 5b, CBPA11-v1 (SEAP reporter raw value, single replicate): SEAP activity in U/L in culture supernatant
Conditions: for Normalized data (SEAP) / Raw data (SEAP): SuppFigure 9c, LD3v3
Description: To rationally design a CBP responding to a chemical input, we used BclXL as the druglow receptor, LD3 as the designed binder and a designed BclXL variant as the drughigh receptor (referred to as BclXLhigh) to construct a CBP responsive to BclXL inhibitors (Fig. 4a). To design BclXLhigh, we used a multistate design computational protocol described elsewhere[26] […] Thus, BclXLhigh-v(1–3) were chosen as the functional drughigh receptors, resulting in three A-1155463-controlled CBPs (referred to as CBPA11-v(1–3)) (Fig. 4c–e).
HEK293T cells were seeded in a 96-well plate 24 h before transfection. The transfection mix in each well consisted of 3 ng of constitutive human CMV promoter driven mammalian STAT3 expression vector (PhCMV-STAT3-pA), 30 ng of STAT3-induced reporter expression (OStat3-PhCMVmin-SEAP-pA) and 50 ng of expression vectors for each GEMS receptor chain (PSV40-IgK-(drughigh receptor)-EpoRm-IL-6RBm-pA and PSV40-IgK-(druglow receptor-GGGGSX3-LD3)-EpoRm-IL-6RBm-pA). For the specific drughigh receptor and druglow receptor used in the different cellular assays, they are indicated as wild type or with mutations. Then, plasmid DNA was mixed with 50 μl opti-MEM (Thermo Fisher) and 600 ng of polyethyleneimine (Polysciences, catalog no. 24765-1). For drug treatment experiments, drugs were added 12 h post-transfection and incubated with cells for 24 h before the SEAP reporter detection assay.
SEAP activity (U l^−1) in cell culture supernatants was quantified by kinetic measurements at 405 nm (1 minute per measurement for 30 cycles) of absorbance increase due to phosphatase-mediated hydrolysis of para-nitrophenyl phosphate (pNPP).
Binding affinities of SPR drug competition assays were calculated using three-parameter nonlinear regression in GraphPad Prism (v.8.3.0). Representative data of cell assays are presented as individual values and mean values (bars). n = 3 refers to biological replicates. All IC50 or EC50 values of cell assays reported were calculated using four-parameter nonlinear regression ± s.d. Bandpass features of cutoff concentrations and Bandwidth90% were estimated based on the curve fitted using bell-shaped curve nonlinear regression in GraphPad Prism (v.8.3.0). […]
Supplementary Figure 4: Design, screening and validation of BclXLhigh variants. a) Screening of BclXLhigh variants in the GEMS platform. […]
Dissociation constant measurement of BclXLhigh-v(1-3) and LD3. Equilibrium curves are fitted using […]
BclXLhigh-v1 (purple), BclXLhigh-v2 (blue), […]
a) Bcl2high-based bandpass filter designs were developed and to respond to different concentrations of […]
corresponding inhibitor. c) Screening of Bcl2high-based bandpass filter variants in the GEMS platform.
The designed binder LD3 was fused to the druglow-receptor (PSV40-IgK-Bcl2-LD3-EpoRm-IL-6RBm-pA) in one EpoR chain and Bcl2high variants with the insensitive Bcl2 (iBcl2) as control in the other EpoR chain (PSV40-IgK-Bcl2high-EpoRm-IL-6RBm-pA). HEK293T cells were transfected with indicated […]
the mean of six biological replicates ± s.d., overlaid with a scatter dot plot of the original data points.
(1 picture or pasted object on this page, not shown here)
Supplementary Figure 6: Binding affinities and drug resistances of Bcl2high-v(2,4,5) assessed by […]
a) Measurement of dissociation constants for Bcl2high-v(2,4,5) and LD3 interactions. Equilibrium curves […]
Bcl2high-v(2,4,5) measured by SPR. 5 μM of Bcl2 or indicated variants were mixed with 10 μM of […]
Bcl2high-v2 (red), Bcl2high-v4
Supplementary Figure 7: Screening of LD3 variants in CBPA11-v(1-3) and raw data of CBPA11-v(1,3) with LD3-v3 variant. a-c) Screening of LD3 and LD3-v(1-3) variants in complex with BclXL for more sensitive CBPA11-v1 (a), CBPA11-v2 (b), CBPA11-v3 (c) in the GEMS platform. The LD3 variants replaced the role of LD3 (PSV40-IgK-BclXL-LD3-v(1-3)-EpoRm-IL-6RBm-pA) in one EpoR chain and BclXLhigh-v(1-3) in the other EpoR chain (PSV40-IgK-BclXLhigh-V(1-3)-EpoRm-IL-6RBm-pA). HEK293T cells were transfected with […]

CN(C)CC#Cc1ccc(OCCCc2sc(N3CCc4cccc(C(=O)Nc5nc6ccccc6s5)c4C3)nc2C(=O)O)c(F)c1 [A-1155463]
Normalized data (SEAP) (A-1155463 10 nM): 57.1742
Raw data (SEAP) (A-1155463 10 nM): 4.199
Normalized data (SEAP) (A-1155463 31.6 nM): 64.0307
Raw data (SEAP) (A-1155463 31.6 nM): 4.702
Normalized data (SEAP) (A-1155463 100 nM): 100
Raw data (SEAP) (A-1155463 100 nM): 7.344
Normalized data (SEAP) (A-1155463 316 nM): 98.6857
Raw data (SEAP) (A-1155463 316 nM): 7.247
Normalized data (SEAP) (A-1155463 1000 nM): 76.9661
Raw data (SEAP) (A-1155463 1000 nM): 5.652
Normalized data (SEAP) (A-1155463 3160 nM): 98.598
Raw data (SEAP) (A-1155463 3160 nM): 7.241
Normalized data (SEAP) (A-1155463 10000 nM): 93.3297
Raw data (SEAP) (A-1155463 10000 nM): 6.854
SEAP, replicate values (Supplementary Figure 9e, CBPA11-v3-BclXLv2, A-1155463 1 nM): 84.4482 and 81.7463 and 104.541
SEAP, replicate values (Supplementary Figure 9e, CBPA11-v3-BclXLv2, A-1155463 3.18 nM): 146.322 and 134.178 and 165.303
SEAP, replicate values (Supplementary Figure 9e, CBPA11-v3-BclXLv2, A-1155463 10 nM): 324.719 and 293.474 and 344.378
SEAP, replicate values (Supplementary Figure 9e, CBPA11-v3-BclXLv2, A-1155463 31.8 nM): 360.563 and 353.899 and 371.872
SEAP, replicate values (Supplementary Figure 9e, CBPA11-v3-BclXLv2, A-1155463 100 nM): 397.777 and 391.029 and 415.369
SEAP, replicate values (Supplementary Figure 9e, CBPA11-v3-BclXLv2, A-1155463 318 nM): 374.208 and 326.503 and 405.592
SEAP, replicate values (Supplementary Figure 9e, CBPA11-v3-BclXLv2, A-1155463 1000 nM): 326.827 and 274.864 and 352.239
SEAP, replicate values (Supplementary Figure 9e, CBPA11-v3-BclXLv2, A-1155463 3180 nM): 224.895 and 197.696 and 225.125
SEAP, replicate values (Supplementary Figure 9e, CBPA11-v3, A-1155463 1 nM): 77.8998 and 72.2772 and 68.2722
SEAP, replicate values (Supplementary Figure 9e, CBPA11-v3, A-1155463 3.18 nM): 101.26 and 74.5174 and 69.017
SEAP, replicate values (Supplementary Figure 9e, CBPA11-v3, A-1155463 10 nM): 279.56 and 237.506 and 229.509
SEAP, replicate values (Supplementary Figure 9e, CBPA11-v3, A-1155463 31.8 nM): 420.603 and 418.534 and 369.593
SEAP, replicate values (Supplementary Figure 9e, CBPA11-v3, A-1155463 100 nM): 495.942 and 494.207 and 527.219
SEAP, replicate values (Supplementary Figure 9e, CBPA11-v3, A-1155463 318 nM): 528.894 and 526.095 and 525.969
SEAP, replicate values (Supplementary Figure 9e, CBPA11-v3, A-1155463 1000 nM): 429.812 and 444.52 and 449.13
SEAP, replicate values (Supplementary Figure 9e, CBPA11-v3, A-1155463 3180 nM): 188.374
SEAP, replicate values (Supplementary Figure 9d, CBPA11-v1-BclXLv2, A-1155463 1 nM): 111.205 and 87.5973 and 101.043
SEAP, replicate values (Supplementary Figure 9d, CBPA11-v1-BclXLv2, A-1155463 3.18 nM): 157.154 and 178.429 and 193.635
SEAP, replicate values (Supplementary Figure 9d, CBPA11-v1-BclXLv2, A-1155463 10 nM): 436.402 and 372.407 and 451.931
SEAP, replicate values (Supplementary Figure 9d, CBPA11-v1-BclXLv2, A-1155463 31.8 nM): 433.431 and 447.679 and 460.586
SEAP, replicate values (Supplementary Figure 9d, CBPA11-v1-BclXLv2, A-1155463 100 nM): 510.537 and 467.35 and 481.779
SEAP, replicate values (Supplementary Figure 9d, CBPA11-v1-BclXLv2, A-1155463 318 nM): 466.109 and 461.812 and 531.315
SEAP, replicate values (Supplementary Figure 9d, CBPA11-v1-BclXLv2, A-1155463 1000 nM): 444.141 and 425.472 and 444.224
SEAP, replicate values (Supplementary Figure 9d, CBPA11-v1-BclXLv2, A-1155463 3180 nM): 353.967 and 340.947 and 373.905
SEAP, replicate values (Supplementary Figure 9d, CBPA11-v1-BclXLv2, A-1155463 10000 nM): 194.487 and 169.62 and 189.065
SEAP, replicate values (Supplementary Figure 9d, CBPA11-v1, A-1155463 1 nM): 63.0929 and 67.5149 and 84.3456
SEAP, replicate values (Supplementary Figure 9d, CBPA11-v1, A-1155463 3.18 nM): 70.097 and 95.813 and 111.853
SEAP, replicate values (Supplementary Figure 9d, CBPA11-v1, A-1155463 10 nM): 455.879 and 489.769 and 488.832
SEAP, replicate values (Supplementary Figure 9d, CBPA11-v1, A-1155463 31.8 nM): 620.201 and 681.136 and 678.515
SEAP, replicate values (Supplementary Figure 9d, CBPA11-v1, A-1155463 100 nM): 962.669 and 957.215 and 954.472
SEAP, replicate values (Supplementary Figure 9d, CBPA11-v1, A-1155463 318 nM): 973.295 and 858.467 and 847.573
SEAP, replicate values (Supplementary Figure 9d, CBPA11-v1, A-1155463 1000 nM): 855.269 and 763.206 and 684.986
SEAP, replicate values (Supplementary Figure 9d, CBPA11-v1, A-1155463 3180 nM): 503.783 and 501.256 and 493.903
SEAP, replicate values (Supplementary Figure 9d, CBPA11-v1, A-1155463 10000 nM): 194.615 and 191.032 and 215.159

From article PMC11062894, “Protein-based bandpass filters for controlling cellular signaling with chemical inputs” (Nature Chemical Biology, 2023)
